Results taken from ChEMBL document CHEMBL3045992, “Antitumour activity of 5-[(2E)-1-(1H-benzimidazol-2-yl)-3-substituted phenylprop-2-en-1-ylidene] pyrimidine-2,4,6(1H,3H,5H)-triones against Daltons ascitic lymphoma in mice” (Med Chem Res, 2013).

Legend:
[1] = Antitumor activity against Mus musculus (mouse) DLA cells transplanted in Swiss albino mouse assessed as decrease in total WBC count measured 10^3 cells at 20 mg/kg, ip qd administered 24 hr post tumor transplantation for 14 days measured on day 14 (reference value: 14.40 +/- 2.5 ml); type: functional; settings: route intraperitoneal
[2] = Antitumor activity against Mus musculus (mouse) DLA cells transplanted in Swiss albino mouse assessed as decrease in triglyceride level at 20 mg/kg, ip qd administered 24 hr post tumor transplantation for 14 days measured on day 14 (reference value: 210.12 +/- 4.65 mg/dl); type: functional; settings: route intraperitoneal
[3] = Antitumor activity against Mus musculus (mouse) DLA cells transplanted in Swiss albino mouse assessed as decrease in cancer cell count measured 10^6 cells at 20 mg/kg, ip qd administered 24 hr post tumor transplantation for 14 days measured on day 14 (reference value: 2.76 +/- 0.33 ml); type: functional, Cancer cell lines; settings: route intraperitoneal
[4] = Antitumor activity against Mus musculus (mouse) DLA cells transplanted in Swiss albino mouse assessed as decrease in alanine amino transferase level at 20 mg/kg, ip qd administered 24 hr post tumor transplantation for 14 days measured on day 14 (reference value: 61.2 +/- 2.6 U/L); type: functional; settings: route intraperitoneal
[5] = Antitumor activity against Mus musculus (mouse) DLA cells transplanted in Swiss albino mouse assessed as increase in life span at 20 mg/kg, ip qd administered 24 hr post tumor transplantation for 14 days measured on day 14 (reference value: 50%); type: functional; settings: route intraperitoneal
[6] = Antitumor activity against Mus musculus (mouse) DLA cells transplanted in Swiss albino mouse assessed as increase in platelet count at 20 mg/kg, ip qd administered 24 hr post tumor transplantation for 14 days measured on day 14 (reference value: 1.6 +/- 0.52 lakhs/mm3); type: functional; settings: route intraperitoneal
[7] = Antitumor activity against Mus musculus (mouse) DLA cells transplanted in Swiss albino mouse assessed as decrease in packed cell volume at 20 mg/kg, ip qd administered 24 hr post tumor transplantation for 14 days measured on day 14 (reference value: 30.55 +/- 3.52%); type: functional; set-up: scale not given: the % may be the effect or the level left; settings: route intraperitoneal
[8] = Antitumor activity against Mus musculus (mouse) DLA cells transplanted in Swiss albino mouse assessed as decrease in body weight at 20 mg/kg, ip qd administered 24 hr post tumor transplantation for 14 days measured on day 14 (reference value: 7.6 +/- 0.94 g); type: functional; settings: route intraperitoneal
[9] = Antitumor activity against Mus musculus (mouse) DLA cells transplanted in Swiss albino mouse assessed as increase in haemoglobin level at 20 mg/kg, ip qd administered 24 hr post tumor transplantation for 14 days measured on day 14 (reference value: 7.12 +/- 0.95 g/dl); type: functional; settings: route intraperitoneal
[10] = Antitumor activity against Mus musculus (mouse) DLA cells transplanted in Swiss albino mouse assessed as decrease in aspartate amino transferase level at 20 mg/kg, ip qd administered 24 hr post tumor transplantation for 14 days measured on day 14 (reference value: 85.6 +/- 2.72 U/L); type: functional; settings: route intraperitoneal
[11] = Antitumor activity against Mus musculus (mouse) DLA cells transplanted in Swiss albino mouse assessed as decrease in alkaline phosphatase level at 20 mg/kg, ip qd administered 24 hr post tumor transplantation for 14 days measured on day 14 (reference value: 242.22 +/- 4.3 U/L); type: functional; settings: route intraperitoneal
[12] = Antitumor activity against Mus musculus (mouse) DLA cells transplanted in Swiss albino mouse assessed as increase in RBC count at 20 mg/kg, ip qd administered 24 hr post tumor transplantation for 14 days measured on day 14 (reference value: 2.46 +/- 0.45 million/mm3); type: functional; settings: route intraperitoneal
[13] = Antitumor activity against Mus musculus (mouse) DLA cells transplanted in Swiss albino mouse assessed as decrease in cholesterol level at 20 mg/kg, ip qd administered 24 hr post tumor transplantation for 14 days measured on day 14 (reference value: 140.86 +/- 4.6 mg/dl); type: functional; settings: route intraperitoneal
[14] = Antitumor activity against Mus musculus (mouse) DLA cells transplanted in Swiss albino mouse assessed as decrease in packed cell volume at 50 mg/kg, ip qd administered 24 hr post tumor transplantation for 14 days measured on day 14 (reference value: 30.55 +/- 3.52%); type: functional; set-up: scale not given: the % may be the effect or the level left; settings: route intraperitoneal
[15] = Antitumor activity against Mus musculus (mouse) DLA cells transplanted in Swiss albino mouse assessed as decrease in triglyceride level at 50 mg/kg, ip qd administered 24 hr post tumor transplantation for 14 days measured on day 14 (reference value: 210.12 +/- 4.65 mg/dl); type: functional; settings: route intraperitoneal
[16] = Antitumor activity against Mus musculus (mouse) DLA cells transplanted in Swiss albino mouse assessed as increase in platelet count at 50 mg/kg, ip qd administered 24 hr post tumor transplantation for 14 days measured on day 14 (reference value: 1.6 +/- 0.52 lakhs/mm3); type: functional; settings: route intraperitoneal
[17] = Antitumor activity against Mus musculus (mouse) DLA cells transplanted in Swiss albino mouse assessed as decrease in total WBC count measured 10^3 cells at 50 mg/kg, ip qd administered 24 hr post tumor transplantation for 14 days measured on day 14 (reference value: 14.40 +/- 2.5 ml); type: functional; set-up: unit not given here; settings: route intraperitoneal
Mus musculus = assay: Acute toxicity in ip dosed albino Mus musculus (mouse) after 24 hr; type: organism-based; settings: in vivo
[18] = Antitumor activity against Mus musculus (mouse) DLA cells transplanted in Swiss albino mouse assessed as decrease in alanine amino transferase level at 50 mg/kg, ip qd administered 24 hr post tumor transplantation for 14 days measured on day 14 (reference value: 61.2 +/- 2.6 U/L); type: functional; settings: route intraperitoneal
[19] = Antitumor activity against Mus musculus (mouse) DLA cells transplanted in Swiss albino mouse assessed as decrease in alkaline phosphatase level at 50 mg/kg, ip qd administered 24 hr post tumor transplantation for 14 days measured on day 14 (reference value: 242.22 +/- 4.3 U/L); type: functional; settings: route intraperitoneal
[20] = Antitumor activity against Mus musculus (mouse) DLA cells transplanted in Swiss albino mouse assessed as decrease in cancer cell count measured 10^6 cells at 50 mg/kg, ip qd administered 24 hr post tumor transplantation for 14 days measured on day 14 (reference value: 2.76 +/- 0.33 ml); type: functional, Cancer cell lines; settings: route intraperitoneal
[21] = Antitumor activity against Mus musculus (mouse) DLA cells transplanted in Swiss albino mouse assessed as increase in RBC count at 50 mg/kg, ip qd administered 24 hr post tumor transplantation for 14 days measured on day 14 (reference value: 2.46 +/- 0.45 million/mm3); type: functional; settings: route intraperitoneal
[22] = Antitumor activity against Mus musculus (mouse) DLA cells transplanted in Swiss albino mouse assessed as decrease in aspartate amino transferase level at 50 mg/kg, ip qd administered 24 hr post tumor transplantation for 14 days measured on day 14 (reference value: 85.6 +/- 2.72 U/L); type: functional; settings: route intraperitoneal
[23] = Antitumor activity against Mus musculus (mouse) DLA cells transplanted in Swiss albino mouse assessed as decrease in body weight at 50 mg/kg, ip qd administered 24 hr post tumor transplantation for 14 days measured on day 14 (reference value: 7.6 +/- 0.94 g); type: functional; settings: route intraperitoneal
[24] = Antitumor activity against Mus musculus (mouse) DLA cells transplanted in Swiss albino mouse assessed as increase in haemoglobin level at 50 mg/kg, ip qd administered 24 hr post tumor transplantation for 14 days measured on day 14 (reference value: 7.12 +/- 0.95 g/dl); type: functional; settings: route intraperitoneal
[25] = Antitumor activity against Mus musculus (mouse) DLA cells transplanted in Swiss albino mouse assessed as decrease in cholesterol level at 50 mg/kg, ip qd administered 24 hr post tumor transplantation for 14 days measured on day 14 (reference value: 140.86 +/- 4.6 mg/dl); type: functional; settings: route intraperitoneal
[26] = Antitumor activity against Mus musculus (mouse) DLA cells transplanted in Swiss albino mouse assessed as increase in life span at 50 mg/kg, ip qd administered 24 hr post tumor transplantation for 14 days measured on day 14 (reference value: 50%); type: functional; settings: route intraperitoneal

Structure (SMILES)	Activity [14]	Activity [15]	Activity [16]	Activity [17]	ED50 (Mus musculus)	Activity [18]	Activity [19]	Activity [20]	Activity [21]	Activity [22]	Activity [23]	Activity [24]	Activity [25]	Activity [26]	also measured
O=c1[nH]cc(F)c(=O)[nH]1 [FLUOROURACIL]															Activity [1]: 11.3 mL; Activity [2]: 156.42 mg/dL; Activity [3]: 1.3 mL; Activity [4]: 42.45 U/L; Activity [5]: 94%; Activity [6]: 2.65 ×10⁵ /mm3; Activity [7]: 17.45%; Activity [8]: 3.7 g; Activity [9]: 11.5 g/dL; Activity [10]: 56.3 U/L; Activity [11]: 162.3 U/L; Activity [12]: 4.1 million/mm3; Activity [13]: 112.52 mg/dL
CN(C)c1ccc(/C=C/C(=C2C(=O)NC(=O)NC2=O)c2nc3ccccc3[nH]2)cc1	22.42%	172.4 mg/dL	2.22 ×10⁵ /mm3	12.5	50 mg/kg	51.45 U/L	210.21 U/L	1.9 mL	3.25 million/mm3	73.4 U/L	5.9 g	10.42 g/dL	124.3 mg/dL	74%	
O=C1NC(=O)C(=C(/C=C/c2ccccc2O)c2nc3ccccc3[nH]2)C(=O)N1	23.68%	178.7 mg/dL	2.05 ×10⁵ /mm3	13.45	50 mg/kg	56.42 U/L	229.15 U/L	2.03 mL	2.8 million/mm3	75.4 U/L	5.43 g	10.1 g/dL	131.3 mg/dL	69%	
O=C1NC(=O)C(=C(/C=C/c2ccccc2)c2nc3ccccc3[nH]2)C(=O)N1	24.1%	186.85 mg/dL	1.99 ×10⁵ /mm3	13.8	50 mg/kg	57.3 U/L	232.32 U/L	2.26 mL	2.9 million/mm3	77.6 U/L	6.45 g	9.3 g/dL	136.45 mg/dL	66%	
O=C1NC(=O)C(=C(/C=C/c2ccc(Cl)cc2)c2nc3ccccc3[nH]2)C(=O)N1	23.1%	182.5 mg/dL	2.1 ×10⁵ /mm3	12.7	50 mg/kg	55.6 U/L	223.36 U/L	2.12 mL	3.1 million/mm3	76.52 U/L	6.6 g	10.3 g/dL	129.32 mg/dL	70%	
COc1ccc(/C=C/C(=C2C(=O)NC(=O)NC2=O)c2nc3ccccc3[nH]2)cc1	22.9%	170.6 mg/dL	2.12 ×10⁵ /mm3	12.55	50 mg/kg	53.52 U/L	218.26 U/L	1.96 mL	3.15 million/mm3	75.62 U/L	6.3 g	10.28 g/dL	126.35 mg/dL	72%	
O=C1NC(=O)C(=C(/C=C/c2cccc([N+](=O)[O-])c2)c2nc3ccccc3[nH]2)C(=O)N1	20.48%	168.7 mg/dL	2.3 ×10⁵ /mm3	12.45	50 mg/kg	53.42 U/L	202.85 U/L	1.88 mL	3.3 million/mm3	72.6 U/L	5.88 g	10.5 g/dL	122.3 mg/dL	76%	
